Broadly, the DC50 is the concentration at which degradation of the target reaches its halfway point. A low value points to degradation at low concentration.

Experiment [1] has as its target T1, IKZF1 Ikaros (Homo sapiens, UniProt Q13422+Q96SW2). In words: Human Regulatory T Cell Degradation Assay (Ikaros). It is filed as cell-based. The settings on record: human regulatory T cells, 20 h; concentration reducing protein level by 50% compared to DMSO alone. As to the method:
Cryopreserved human regulatory T cells were thawed in RPMI+10% FBS+20 ng/mL IL-2. After being spun at 1200 rpm for 5 mins, the cells were resuspended in RPMI+10% FBS+20 ng/ml and rested at 37° C. with 5% CO2 for 3 hours. The cells were then plated at 40,000 cells/well in 40 μL RPMI+10% FBS+20 ng/mL human IL-2 in a 384 well cell culture plate prior to using acoustic dispensing technology (ECHO 555) for adding compounds of interest. Cell cultures were incubated for 20 hours at 37° C. and 5% CO2. In order to facilitate analysis, cell cultures were spun down at 1200 rpm for 5 minutes and the supernatant was discarded using an EL406 plate washer. After washing three times with […] PBS, cell pellets were resuspended in 50 μL of […] viability staining solution (Life Technologies, Cat #L34975) and incubated for 30 minutes on ice protected from light. Cells were washed three times with 70 μL PBS+0.5% BSA using an EL406 plate washer. After shaking the plate to dislodge the cell pellet, cells were resuspended in 50 μL of Fixation Buffer (eBioScience FoxP3 buffer set 00-5523-00) for 60 minutes at room temperature. After centrifuging and discarding the supernatant, cells were permeabilized with 50 μL of permeabilization buffer (eBioScience FoxP3 buffer set 00-5523-00) for 10 minutes at room temperature. Following permeabilization, cells were spun down and the supernatant was replaced with 30 μL fluorescently labelled antibodies against the intracellular targets Helios (Helios-APC [BioLegend, Cat #137222, 1:50])]), Aiolos, and Ikaros 1× Permeabilization buffer and staining reactions were incubated for 1 hour at room temperature; protected from light. Subsequently, […] Permeabilization buffer was added prior to centrifuging the cells and discarding the supernatant. Stained cells were resuspended in 30 μL of flow cytometry staining buffer (PBS+0.5% BSA) and analyzed using an Intellicyt Ique Plus flow cytometer.
Table B-1 lists the maximum observed degradation of the IKZF1 protein and IKZF2 protein as measured in the Human Regulatory T Cell Degradation assay. The results in Table B-1 were rounded to two digits. In the Human Regulatory T Cell Degradation assay, a value of 100% indicated no detectable protein remaining or complete degradation of the protein; and a value of 0% indicated no detectable degradation of the protein by the test compound.

Experiment [2] deals with T1, IKZF1 Ikaros. In words: Human CD8+ T Cell Reprogramming (Degradation) Assay (Ikaros). It is filed as cell-based. Also noted: Cryopreserved healthy donor human peripheral blood mononuclear cells (PBMC); endogenous in cells; host or cells: CD8+ T cells within healthy donor human PBMC. The note with it: CD8+ T cells, human PBMC, 24 h; concentration reducing protein level by 50% compared to DMSO alone. As to the method:
(§1) Cryopreserved healthy donor human peripheral blood mononuclear cells (PBMC) from healthy donors were thawed and seeded at 500,000 cells/well of 96-well round bottom plates in RPMI 1640 media (Gibco) supplemented with 10% FBS, Pen/Strep (Gibco), MEM-NEAA (Gibco), and sodium pyruvate (Gibco). Cells were treated with titrated doses of compound for 24 hours at 37° C., 5% CO2 before analyzing by flow cytometry.
(§2) For flow cytometry staining, cells were washed twice with flow cytometry staining buffer (Thermo Fisher) and incubated in Human Tru-stain Fc block (Biolegend) for 10 minutes before adding eFluor780 viability dye (Thermo Fisher) and surface marker antibody cocktail containing LD-eFluor780, CD3-BUV-395, CD4-BUV805, CD8-FITC, and CD25-BV605 for 30 minutes at 4° C. Cells were then fixed and permeabilized by incubation with permeabilization buffer (eBioscience FoxP3 buffer set 00-5523-00) for 30 minutes at 4° C. as per the kit manufacturer's instructions. Cells were washed twice with the Perm/Wash buffer supplied in the kit as per the manufacturer's instructions and incubated overnight at 4° C. with an intracellular antibody cocktail comprised of antibodies specific for the transcription factors (i.e., Foxp3-BV421, HELIOS-PE-Cy7, EOS-PE, IKAROS-PECF594, AIOLOS-AF647). Cells were washed twice with Perm/Wash buffer and resuspended in flow cytometry staining buffer (Thermo Fisher) prior to acquisition. Sample acquisition and analysis was performed using a BD LSRFortessa (BD Biosciences) flow cytometer. Single-stain controls for each fluorochrome were prepared using UltraComp eBead Compensation Beads (Thermo Fisher). Data were analyzed using FlowJo version 10 and GraphPad Prism Software.
(§3) Table D-1 lists the maximum observed degradation of the IKZF1 protein and IKZF3 protein as measured in the Human CD8^+ T Cell Reprogramming assay. The results in Table D-1 were rounded to two digits. In the Human CD8^+ T Cell Reprogramming assay, a value of 100% indicated no detectable protein remaining or complete degradation of the protein; and a value of 0% indicated no detectable degradation of the protein by the test compound.

In experiment [3] the target is T1, IKZF1 Ikaros. Nature of the experiment: Jurkat Cellular Degradation Assay (Ikaros). It is filed as cell-based. Also noted: endogenous in cells; host or cells: Jurkat cells. The note with it: Jurkat cells, 72 h; concentration reducing protein level by 50% compared to DMSO alone. As to the method: (§4) Jurkat cells were plated at 80,000 cells/well in 40 μL RPMI+10% FBS in a 384-well cell culture plate prior to using acoustic dispensing technology for adding a compound of interest. Cell cultures were incubated for 72 h at 37° C. and 5% CO2. In order to facilitate analysis, cell cultures were spun down at 200 rpm for 5 min and the supernatant was discarded. After shaking the plate to dislodge the cell pellet, cells were resuspended in 50 μL of Fixation Buffer (eBioscience FoxP3 buffer set 00-5523-00) for 60 min at room temperature. After centrifuging and discarding the supernatant, cells were permeabilized with 50 μL of Permeabilization buffer (eBioscience FoxP3 buffer set 00-5523-00) for 10 min at room temperature. Following permeabilization, cells were spun down and the supernatant was replaced with 20 μL fluorescently labelled antibodies against Helios, Ikaros and Aiolos or corresponding Isotype controls in 1× Permeabilization buffer (Ikaros-Alexa488 [Biolegend, Cat #368408, 1:50], Helios-PE [CST, Cat #29360, 1:50], Aiolos-Alexa647 [Biolegend, Cat #371106 Biolegend, 1:25]) and staining reactions were incubated for 1 h at room temperature while protected from light. Subsequently, 30 μL of 1× Permeabilization buffer was added prior to centrifuging the cells and discarding the supernatant. Stained cells were resuspended in 25 μL of flow cytometry staining buffer [PBS+0.2% bovine serum albumin (BSA)] and analyzed using an Intellicyt Ique Plus flow cytometer.
(§5) Table A-1 lists the maximum observed degradation of the IKZF1 protein, IKZF2 protein, and IKZF3 protein as measured in the Jurkat Cellular Degradation assay. The results in Table A-I were rounded to two digits. In the Jurkat Cellular Degradation assay, a value of 100% indicated no detectable protein remaining or complete degradation of the protein; and a value of 0% indicated no detectable degradation of the protein by the test compound.

Experiment [4] addresses T2, IKZF3 Aiolos (Homo sapiens, UniProt Q96SW2+Q9UKT9). In words: Human CD8+ T Cell Reprogramming (Degradation) Assay (Aiolos). It counts as cell-based. Also noted: Cryopreserved healthy donor human peripheral blood mononuclear cells (PBMC); endogenous in cells; host or cells: CD8+ T cells within healthy donor human PBMC. The note with it: CD8+ T cells, human PBMC, 24 h; concentration reducing protein level by 50% compared to DMSO alone. As to the method: as §1, §2, §3

The target in experiment [5] is T2, IKZF3 Aiolos. In words: Jurkat Cellular Degradation Assay (Aiolos). It is filed as cell-based. Set-up: endogenous in cells; host or cells: Jurkat cells. The note with it: Jurkat cells, 72 h; concentration reducing protein level by 50% compared to DMSO alone. As to the method: as §4, §5
The next experiment has as its system solid tumors. The settings on record: sometimes; patients with solid tumors / advanced malignancies; cited from earlier work.

T1 sequence (Q13422 whole entry): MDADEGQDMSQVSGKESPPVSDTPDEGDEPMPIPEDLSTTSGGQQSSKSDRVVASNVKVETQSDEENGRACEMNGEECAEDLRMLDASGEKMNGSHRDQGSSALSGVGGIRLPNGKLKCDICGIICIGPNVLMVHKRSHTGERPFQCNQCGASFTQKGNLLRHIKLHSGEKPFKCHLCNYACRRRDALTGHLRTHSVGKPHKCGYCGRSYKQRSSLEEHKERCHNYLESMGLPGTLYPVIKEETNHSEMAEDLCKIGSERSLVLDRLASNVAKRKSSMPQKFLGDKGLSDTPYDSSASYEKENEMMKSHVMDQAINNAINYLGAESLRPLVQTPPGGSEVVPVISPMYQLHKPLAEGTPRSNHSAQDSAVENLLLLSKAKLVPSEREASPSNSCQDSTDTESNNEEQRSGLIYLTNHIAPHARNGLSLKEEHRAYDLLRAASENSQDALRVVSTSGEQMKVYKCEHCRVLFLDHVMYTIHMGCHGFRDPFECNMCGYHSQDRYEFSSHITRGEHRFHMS
T1 sequence (Q96SW2 whole entry): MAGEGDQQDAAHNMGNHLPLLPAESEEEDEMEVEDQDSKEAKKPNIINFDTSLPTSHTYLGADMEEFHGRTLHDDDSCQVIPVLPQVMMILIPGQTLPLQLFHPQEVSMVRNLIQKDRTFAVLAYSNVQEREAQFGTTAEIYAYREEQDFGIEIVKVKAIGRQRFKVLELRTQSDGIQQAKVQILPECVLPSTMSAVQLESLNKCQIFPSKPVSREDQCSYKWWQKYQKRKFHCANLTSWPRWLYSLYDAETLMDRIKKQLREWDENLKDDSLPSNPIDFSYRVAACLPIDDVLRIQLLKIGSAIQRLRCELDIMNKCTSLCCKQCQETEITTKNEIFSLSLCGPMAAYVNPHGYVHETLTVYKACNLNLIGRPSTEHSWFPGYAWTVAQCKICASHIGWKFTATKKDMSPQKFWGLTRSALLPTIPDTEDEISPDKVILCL
T1 sequence (Q16531 whole entry partner): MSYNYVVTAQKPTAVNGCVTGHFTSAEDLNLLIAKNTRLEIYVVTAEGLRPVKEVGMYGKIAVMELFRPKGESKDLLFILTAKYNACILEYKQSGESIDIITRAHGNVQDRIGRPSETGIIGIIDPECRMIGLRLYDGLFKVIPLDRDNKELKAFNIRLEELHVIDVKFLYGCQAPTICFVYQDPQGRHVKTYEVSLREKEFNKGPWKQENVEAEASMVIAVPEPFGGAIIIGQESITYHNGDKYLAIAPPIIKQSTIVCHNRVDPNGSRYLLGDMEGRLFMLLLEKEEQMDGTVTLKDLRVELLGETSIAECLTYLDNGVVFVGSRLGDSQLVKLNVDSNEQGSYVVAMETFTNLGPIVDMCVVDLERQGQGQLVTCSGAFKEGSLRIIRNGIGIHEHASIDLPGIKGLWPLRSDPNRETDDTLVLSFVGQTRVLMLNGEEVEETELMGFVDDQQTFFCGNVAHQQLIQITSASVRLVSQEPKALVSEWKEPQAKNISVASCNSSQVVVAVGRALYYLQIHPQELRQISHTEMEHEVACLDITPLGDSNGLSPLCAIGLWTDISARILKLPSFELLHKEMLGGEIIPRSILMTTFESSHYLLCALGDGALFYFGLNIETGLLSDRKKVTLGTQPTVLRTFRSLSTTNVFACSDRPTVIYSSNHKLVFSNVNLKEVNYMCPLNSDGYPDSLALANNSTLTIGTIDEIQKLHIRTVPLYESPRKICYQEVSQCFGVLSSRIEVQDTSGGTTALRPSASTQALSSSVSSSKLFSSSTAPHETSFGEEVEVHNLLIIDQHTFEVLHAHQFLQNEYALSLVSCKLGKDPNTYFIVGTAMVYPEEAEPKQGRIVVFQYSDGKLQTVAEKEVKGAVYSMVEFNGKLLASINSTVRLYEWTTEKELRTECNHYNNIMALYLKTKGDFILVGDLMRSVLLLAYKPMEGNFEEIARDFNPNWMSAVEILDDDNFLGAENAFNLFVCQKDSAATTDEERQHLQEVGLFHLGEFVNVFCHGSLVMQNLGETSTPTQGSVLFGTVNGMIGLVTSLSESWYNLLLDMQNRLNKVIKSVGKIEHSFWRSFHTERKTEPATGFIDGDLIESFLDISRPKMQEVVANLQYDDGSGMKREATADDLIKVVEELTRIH
T2 sequence (Q9UKT9 whole entry): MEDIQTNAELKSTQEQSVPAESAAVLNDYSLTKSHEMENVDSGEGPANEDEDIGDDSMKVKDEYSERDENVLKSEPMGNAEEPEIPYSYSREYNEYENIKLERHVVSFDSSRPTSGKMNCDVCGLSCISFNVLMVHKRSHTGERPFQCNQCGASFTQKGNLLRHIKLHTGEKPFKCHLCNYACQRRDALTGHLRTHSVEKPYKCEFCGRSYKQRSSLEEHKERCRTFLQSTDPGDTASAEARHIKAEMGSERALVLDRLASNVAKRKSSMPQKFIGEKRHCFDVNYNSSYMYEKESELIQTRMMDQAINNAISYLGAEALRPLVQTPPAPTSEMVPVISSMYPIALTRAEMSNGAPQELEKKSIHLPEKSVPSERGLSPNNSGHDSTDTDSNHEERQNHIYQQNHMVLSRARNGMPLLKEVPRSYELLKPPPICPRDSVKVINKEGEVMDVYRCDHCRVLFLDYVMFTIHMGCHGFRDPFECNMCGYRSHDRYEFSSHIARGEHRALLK
T2 sequence (Q96SW2 whole entry): as the sequence (Q96SW2 whole entry) above
T2 sequence (Q16531 whole entry partner): as the sequence (Q16531 whole entry partner) above

On to `O=C1CCC(N2Cc3c(ccc(-c4cc(CN5CC(c6ccccc6)C5)ccn4)c3F)C2=O)C(=O)N1` (stereo not shown) [Comparative Compound A, 3-(4-fluoro-1-oxo-5-(4-((3-phenylazetidin-1-yl)methyl)pyridin-2-yl)isoindolin-2-yl) piperidine-2,6-dione, reference compound], for which the DC50 at IKZF1 Ikaros [1] is over 10 µM; at IKZF1 Ikaros [2], over 1 µM; at IKZF1 Ikaros [3], over 10 µM; on IKZF3 Aiolos [4], over 1 µM; on IKZF3 Aiolos [5], over 10 µM.

For the molecule `Nc1cccc2c1C(=O)N(C1CCC(=O)NC1=O)C2=O` (stereo not shown) [pomalidomide], in the experiment with solid tumors, the “clinical response in patients with solid tumors” value (“clinical response in patients” for short) is on record as “modest responses of stable disease”.

For the molecule `Nc1nc(-c2ccc3c(c2)CN(C2CCC(=O)NC2=O)C3=O)ccc1CN1CC2(CCC2)C1` (stereo not shown) [Comparative Compound B, 3-(5-(5-((2-azaspiro[3.3]heptan-2-yl)methyl)-6-aminopyridin-2-yl)-1-oxoisoindolin-2-yl) piperidine-2,6-dione, reference compound], the DC50 at IKZF1 Ikaros [1] was over 10 µM; at IKZF1 Ikaros [2] it was over 1 µM; on IKZF1 Ikaros [3], over 10 µM; at IKZF3 Aiolos [4], over 1 µM; at IKZF3 Aiolos [5], over 10 µM.

As to `Cc1nc2cccc(N)c2c(=O)n1C1CCC(=O)NC1=O` (stereo not shown) [avadomide], the “clinical response in patients” value with solid tumors is given as “modest responses of stable disease”.

For the molecule `Nc1cccc2c1CN(C1CCC(=O)NC1=O)C2=O` (stereo not shown) [lenalidomide], the “clinical response in patients” value in the experiment with solid tumors is reported as “modest responses of stable disease”.

The values above are taken from patent US20260335299A1, “SUBSTITUTED OXOISOINDOLINYL PIPERIDINE-2,6-DIONE COMPOUND AS ANTICANCER AGENT” (BRISTOL-MYERS SQUIBB COMPANY, priority 2023, published 2026).
